Conditions: 30 mg per ml solutions

## CN1CC[C@]23c4c5ccc(O)c4O[C@H]2[C@@H](O)C=C[C@H]3[C@H]1C5.O=S(=O)(O)O [Morphine sulphate]
  effectiveness of nasal solution: effective
